ChEMBL document CHEMBL1124880 (J Med Chem, 1990)

Columns and labels:
[1] = biological target: T1, Adenosine receptor A1 (Rattus norvegicus, UniProt P25099); experiment: Evaluated for the binding affinity towards the Adenosine A1 receptor in cerebral cortices of Sprague-Dawley male rats using [3H]CHA as radioligand.
T1 sequence (P25099 whole entry): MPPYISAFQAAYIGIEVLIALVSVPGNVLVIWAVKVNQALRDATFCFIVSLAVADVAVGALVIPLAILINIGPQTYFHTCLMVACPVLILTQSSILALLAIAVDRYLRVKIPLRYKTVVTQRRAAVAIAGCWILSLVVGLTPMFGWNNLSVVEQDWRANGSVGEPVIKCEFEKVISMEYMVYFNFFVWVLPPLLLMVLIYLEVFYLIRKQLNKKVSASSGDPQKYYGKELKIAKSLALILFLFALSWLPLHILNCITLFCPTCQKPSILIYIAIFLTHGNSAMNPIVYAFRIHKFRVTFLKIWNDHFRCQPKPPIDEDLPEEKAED

[2] = biological target: T1, Adenosine receptor A1; experiment: Binding affinity towards the adenosine A1 receptor in cerebral cortices of Sprague-Dawley male rats using [3H]CHA as radioligand.
[3] = species on record: Rattus norvegicus; experiment: Minimal effective dose in an rat anti-immobility effect using behavioral despair test; assay type: functional; details: read-out: MED
[4] = biological target: T2, Adenosine A2 receptor (Rattus norvegicus, UniProt P29276+P30543)
[5] = biological target: Phosphodiesterase 1 (Rattus norvegicus, UniProt Q63421+Q9EPR9+Q01066); experiment: Evaluated for Ca++ dependent phosphodiesterase activity.; assay type: functional
[6] = species on record: Rattus norvegicus; experiment: Evaluated for Ca++ independent phosphodiesterase activity.; assay type: functional
[7] = biological target: Adenosine receptor A1 (Rattus norvegicus) (UniProt P25099); experiment: Binding affinity for Adenosine A1 receptor in cerebral cortices of Sprague-Dawley male rats using [3H]CHA
[8] = biological target: T1, Adenosine receptor A1; experiment: Binding affinity for Adenosine A1 receptor in cerebral cortices of Sprague-Dawley male rats using [3H]-CHA
[9] = biological target: T2, Adenosine A2 receptor; experiment: Binding affinity for Adenosine A2 receptor in corpora striata of rats using [3H]NECA; assay type: protein assay
[10] = biological target: T1, Adenosine receptor A1

Row | IC50 [1] | IC50 [2] | IC50 [4] | IC50 [5] | IC50 [6] | IC50 [7] | IC50 [8] | Ki [9] | Ki [10] | Compound | minimal effective dose [3]
1 | 3700 nM |  |  |  |  |  |  |  |  | CC(C)Nc1ncnc2c1ncn2[C@@H]1O[C@H](CO)[C@@H](O)[C@H]1O | 
2 |  | 4100 nM | 17 µM |  |  |  |  |  |  | CC(C)Nc1nc2ccccc2n2cnnc12 | 3.2 mg/kg
3 |  | 3200 nM | > 100 µM | > 10 µM | > 10 µM |  |  |  |  | CC(C)Nc1nc2ccc(Cl)cc2n2c(-c3ccccc3)nnc12 | < 32 mg/kg
4 |  |  |  |  |  | 12 µM |  |  |  | CCc1nnc2c(N(C)C)nc3ccccc3n12 | ≤ 3.2 mg/kg
5 |  | > 100000 nM | > 100 µM |  |  |  |  |  |  | CCN(CC)c1nc2ccc(Cl)cc2n2c(C(F)(F)F)nnc12 | ≤ 32 mg/kg
6 |  | 440 nM | 48 µM |  |  |  |  |  |  | CCc1nnc2c(NC(C)C)nc3cc(F)ccc3n12 | ≥ 32 mg/kg
7 |  | 32 nM | 60 µM | > 10 µM | 6 µM |  |  |  |  | Fc1ccc2nc(NC3CCCCC3)c3nnc(C(F)(F)F)n3c2c1 | > 32 mg/kg
8 |  | 65 nM | 0.044 µM | > 10 µM | 2 µM |  |  |  |  | Nc1nc2ccc(Cl)cc2n2c(C(F)(F)F)nnc12 | 3.2 mg/kg
9 |  | 6800 nM | > 100 µM | >> 10 uM | > 10 µM |  |  |  |  | CCc1nnc2c(NC(C)C)nc3c(Cl)cccc3n12 | ≤ 32 mg/kg
10 |  | 680 nM | 6.9 µM | > 100 µM | 4.5 µM |  |  |  |  | CC(C)Nc1nc2ccc(F)cc2n2cnnc12 | ≤ 3.2 mg/kg
11 |  |  |  | >> 10 uM | > 10 µM |  |  |  |  | CCCN(CCC)c1nc2ccc(F)cc2n2c(C(F)(F)F)nnc12 | > 32 mg/kg
12 |  | 7400 nM |  | 0.1 µM | 3.7 µM |  |  |  |  | CCc1nnc2c(N(CC)CC)nc3ccccc3n12 | 3.2 mg/kg
13 |  | 110 nM | 3.2 µM |  |  |  |  |  |  | CCc1nnc2c(NC(C)C)nc3cc(Cl)c(Cl)cc3n12 | ≤ 32 mg/kg
14 |  | 290 nM | 0.1 µM |  |  |  |  |  |  | Nc1nc2ccc(F)cc2n2c(C(F)(F)F)nnc12 | 1 mg/kg
15 |  | 24 nM | 2.3 µM | 1 µM | 1 µM |  |  |  |  | CC(C)Nc1nc2ccc(Cl)cc2n2c(C(F)(F)F)nnc12 | ≤ 3.2 mg/kg
16 |  | 1400 nM | 0.1 µM | >> 10 uM | > 10 µM |  |  |  |  | COc1ccc2c(c1)nc(N)c1nncn12 | 3.2 mg/kg
17 |  | 24 nM | 3.1 µM |  |  |  |  |  |  | CC(C)Nc1nc2ccc(Cl)cc2n2c(C(F)(F)C(F)(F)F)nnc12 | 32 mg/kg
18 |  |  |  | > 10 µM | 0.2 µM |  |  |  |  | CCNc1nc2cc(Cl)ccc2n2c(CC)nnc12 | 3.2 mg/kg
19 |  | 140 nM | 0.036 µM |  |  |  |  |  |  | CCc1nnc2c(N)nc3cc(OC)ccc3n12 | > 32 mg/kg
20 |  | 57 nM | 3.9 µM | 24 µM | 0.37 µM |  |  |  |  | CC(C)Nc1nc2ccc(F)cc2n2c(C(F)(F)F)nnc12 | ≤ 3.2 mg/kg
21 |  | 660 nM | 6.4 µM | 3 µM | 0.3 µM |  |  |  |  | CCc1nnc2c(NC(C)C)nc3ccccc3n12 | 10 mg/kg
22 |  | 27000 nM | 42 µM | 1.2 µM | 3 µM |  |  |  |  | CCN(CC)c1nc2ccccc2n2cnnc12 | 10 mg/kg

Row | IC50 [1] | IC50 [2] | IC50 [4] | IC50 [5] | IC50 [6] | IC50 [7] | IC50 [8] | Ki [9] | Ki [10] | Compound | minimal effective dose [3]
23 |  | 370 nM | 3.3 µM |  |  |  |  |  |  | CC(C)Nc1nc2ccc(Cl)cc2n2cnnc12 | 3.2 mg/kg
24 |  |  |  | >> 10 uM | 10 µM |  |  |  |  | Clc1ccc2nc(N3CCNCC3)c3nnc(-c4ccccc4)n3c2c1 | > 32 mg/kg
25 |  | 580 nM | 0.17 µM | >> 10 uM | 40 µM |  |  |  |  | CCc1nnc2c(N)nc3cc(F)ccc3n12 | 3.2 mg/kg
26 |  | 110 nM | 0.028 µM |  |  |  |  |  |  | CCc1nnc2c(N)nc3ccc(Cl)cc3n12 | ≤ 3.2 mg/kg
27 |  | 430 nM | 0.062 µM | 2 µM | 12 µM |  |  |  |  | CCc1nnc2c(N)nc3ccccc3n12 | 3.2 mg/kg
28 |  | 60 nM | 1.7 µM | 2 µM | 0.5 µM |  |  |  |  | CCc1nnc2c(NC(C)C)nc3ccc(Cl)cc3n12 | ≤ 3.2 mg/kg
29 |  | 4500 nM | 13 µM | > 100 µM | 6 µM |  |  |  |  | CC(C)Nc1nc2cc(F)ccc2n2cnnc12 | > 32 mg/kg
30 |  | 20 nM | 0.89 µM |  |  |  |  |  |  | CCc1nnc2c(NC3CCCC3)nc3ccc(Cl)cc3n12 | > 32 mg/kg
31 |  | 5.5 nM | 2.1 µM |  |  |  |  |  |  | FC(F)(F)c1nnc2c(NC3CCCC3)nc3ccc(Cl)cc3n12 | > 32 mg/kg
32 |  | 280 nM | 6.4 µM |  |  |  |  |  |  | CCc1nnc2c(NC(C)C)nc3cc(F)c(F)cc3n12 | ≤ 32 mg/kg
33 |  | 2900 nM | 1 µM | > 10 µM | 4 µM |  |  |  |  | Nc1nc2ccc(F)cc2n2cnnc12 | ≤ 32 mg/kg
34 |  | 680 nM | > 100 µM |  |  |  |  |  |  | CCc1nnc2c(N[C@@H](C)Cc3ccccc3)nc3ccc(Cl)cc3n12 | > 32 mg/kg
35 |  |  | 0.033 µM |  |  |  | 510 nM |  |  | Nc1nc2ccc(Cl)cc2n2c(-c3ccc(Cl)cc3)nnc12 | 
36 |  | 29000 nM | 110 µM |  |  |  |  |  |  | CCNc1nc2ccccc2n2cnnc12 | 3.2 mg/kg
37 |  | > 10000 nM |  | 3 µM | 7 µM |  |  |  |  | c1ccc2c(c1)nc(N1CCNCC1)c1nncn12 | > 32 mg/kg
38 |  | 380 nM | > 100 µM |  |  |  |  |  |  | CCc1nnc2c(Nc3ccccc3)nc3ccc(Cl)cc3n12 | > 32 mg/kg
39 |  | 1800 nM | 9.5 µM | 20 µM | 2.5 µM |  |  |  |  | CCNc1nc2ccccc2n2c(CC)nnc12 | 3.2 mg/kg
40 |  | 28 nM | > 100 µM | > 10 µM | > 10 µM |  |  |  |  | FC(F)(F)c1nnc2c(NC3CCCCC3)nc3ccc(Cl)cc3n12 | > 32 mg/kg
41 |  | 160 nM | 6.5 µM |  |  |  |  |  |  | COc1nnc2c(NC(C)C)nc3ccc(F)cc3n12 | ≤ 32 mg/kg
42 |  |  |  | 70 µM | 170 µM |  |  |  |  | Cn1c(=O)c2c(ncn2C)n(C)c1=O [CAFFEINE] | 3.2 mg/kg
43 |  | 7000 nM | 13 µM | 0.1 µM | 3.5 µM |  |  |  |  | CC(C)Cn1c(=O)n(C)c(=O)c2nc[nH]c21 [ISOBUTYLMETHYLXANTHINE] | > 32 mg/kg
44 | 6.5 nM |  |  |  |  |  |  | 50 µM | 3 nM | OC[C@H]1O[C@@H](n2cnc3c(Nc4ccccc4)ncnc32)[C@H](O)[C@@H]1O [N6-PHENYLADENOSINE] | 

Row | Compound | IC50 [1] | IC50 [2] | IC50 [4] | IC50 [5] | IC50 [6] | IC50 [7] | IC50 [8] | Ki [9] | Ki [10] | minimal effective dose [3]
45 | Nc1nc2ccc(Cl)cc2n2c(-c3ccccc3)nnc12 |  | 270 nM | 0.021 µM |  |  |  |  |  |  | > 32 mg/kg
46 | CCc1nnc2c(N)nc3cc(Cl)c(Cl)cc3n12 |  | 110 nM | 0.023 µM |  |  |  |  |  |  | 3.2 mg/kg
47 | COc1ccc(C2CNC(=O)C2)cc1OC1CCCC1 (configuration not stated) [ROLIPRAM] |  | > 100000 nM | > 100 µM | > 100 µM | 0.25 µM |  |  |  |  | > 32 mg/kg
